{
  "source": "patent US7951816B2",
  "about": "“Compound containing basic group and use thereof” (Ono Pharmaceutical Co., Ltd., priority 2004, dated 2011)",
  "key": {"[1]": {"target": "T1, CXCR4 (Homo sapiens, UniProt P61073)", "T1 construct": "a human T cell strain in which CXCR4 is known to be expressed; endogenous in cells; host or cells: CEM cells (human T cell line), whole cells", "T1 sequence (P61073 whole entry)": "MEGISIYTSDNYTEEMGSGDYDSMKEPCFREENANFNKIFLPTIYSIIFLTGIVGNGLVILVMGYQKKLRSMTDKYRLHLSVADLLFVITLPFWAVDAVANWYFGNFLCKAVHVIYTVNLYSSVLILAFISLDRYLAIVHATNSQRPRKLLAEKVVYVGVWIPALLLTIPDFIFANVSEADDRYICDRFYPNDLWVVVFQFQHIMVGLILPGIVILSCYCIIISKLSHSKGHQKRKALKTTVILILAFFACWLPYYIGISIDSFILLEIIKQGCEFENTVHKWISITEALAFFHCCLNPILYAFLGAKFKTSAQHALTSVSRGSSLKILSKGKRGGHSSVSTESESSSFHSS", "assay": "Study for inhibition of binding human SDF-1 to CEM cells (125I-SDF-1)", "conditions": "125I-SDF-1 binding to CEM cells", "description": "Specifically, as a system of screening a compound that inhibits the binding between SDF-1 and CXCR4, for example a system of measuring the binding between iodine-labeled SDF-1 and a human T cell strain in which CXCR4 is known to be expressed is operable. The identical idea is possible since macrophage (R5) HIV and RANTES, MIP-1α, and MIP-1β all bind to CCR5.\nStudy for Inhibition of Binding Human SDF-1 to CEM Cells\nTo human T cell strain CEM cells in a binding buffer (containing HEPES and BSA), the test compound and ^125I-SDF-1 (NEN) were added and the mixture was incubated at 4° C. for 60 minutes. The reacted CEM cells were rapidly filtrated with a GF/B membrane filter plate (Packard) to adsorb. The plate was washed with PBS three times and then dried. Microscint+20 (Packard) was added thereto. An amount of the radioactivity bound to the CEM cells was measured using Top Count (Packard) and inhibition (%) of the test compound was calculated according to the following equation: Inhibition={(Et−Ea)/(Et−Ec)}×100\nEt: amount of radioactivity when the test compound is not added,\nEc: amount of radioactivity when non-radioactive SDF-1 (Pepro Tech) is added in an amount of 1000 times as much as ^125I-SDF-1 as a test compound, and\nEa: amount of radioactivity when the test compound is added."}, "[2]": {"assay": "Influence on blood pressure and heart rate in urethane-anesthetized rat, intravenous cumulative dosing", "type": "in vivo", "description": "Measuring of Influence of a Compound of the Present Invention on Blood Pressure and Heart Rate\nA rat was anesthetized with urethane (1.2 g/kg subcutaneous administration). After neck midline dissection, a catheter for measuring blood pressure was inserted into a right common carotid artery. Then, after dissecting inguinal region, a catheter for chemical injection was inserted into a femoral vein and fixed. A catheter for measurement of blood pressure was connected to a pressure transducer and then the pressure waveform was recorded on a thermal writing pen recorder through an amplifier for strain compression (AP-641G (manufactured by NIHON KOHDEN CORPORATION)). In this case, regarding a heart rate, a value through an cardiotachometer (AT-601G (manufactured by NIHON KOHDEN CORPORATION)) using the pressure waveform obtained from the amplifier for strain compression as a trigger was recorded on a thermal writing pen recorder. The test compound was dissolved in a 10% solubilizing agent/physiological saline solution (volume ratio of polyoxyethylene hydroxystearate:propylene glycol:physiological saline=7:3:190) so as to adjust the concentration to 0.1, 0.3, 1, 3 or 10 mg/mL to prepare solutions. Each solution was intravenous administered at 1 mL/Kg through the […] over about 10 seconds. Accumulative administration of stepwise increasing of a dosage was carried out to an individual."}},
  "data": [
    {"smiles": "CCCN(CCC)CCCCNCc1ccc(C(=O)N(Cc2ncc[nH]2)Cc2ncc[nH]2)cc1", "note": "[Compound 10, 4-({[4-(dipropylamino)butyl]amino}methyl)-N,N-bis(1H-imidazol-2-ylmethyl)benzamide]", "values": [
      {"measurement": "IC50", "setting": "[1]", "value": 27, "unit": "nM"}
    ]},
    {"smiles": "CCCN(CCC)CCCCNCc1ccc(CN(Cc2ncc[nH]2)C(=O)c2ncc[nH]2)cc1", "note": "[Compound 19, N-[4-({[4-(dipropylamino)butyl]amino}methyl)benzyl]-N-(1H-imidazol-2-ylmethyl)-1H-imidazole-2-carboxamide]", "values": [
      {"measurement": "effect of decreasing blood pressure", "setting": "[2]; 3 mg/kg or less", "value": "not recognized"},
      {"measurement": "rate of increase in the heart rate", "setting": "[2]; 10 mg/kg", "value": 2, "unit": "%"},
      {"measurement": "influence on the heart rate", "setting": "[2]; low dosage", "value": "no influence on the heart rate"}
    ]}
  ]
}
